Test results taken from EP0239528A1, “13-Beta-carbamoyloxy-milbemicyne derivatives for fighting harmful animal and plant parasites” (CIBA-GEIGY AG, priority 1986, dated 1987).
Like-named read-outs stand apart in the source and are kept apart here.

Tests used:
[1] = system: L₁-Larven von Lucilia sericata; assay: B-3 action against L1 larvae in larval culture medium; type: in vivo; conditions: 96 h, reduced concentration of 100 ppm, after 4 days, read-out: Wirkung (Mortalitätsrate)
Description: B-3. Wirkung gegen L₁-Larven von Lucilia sericata
1 ml einer wässrigen Suspension der zu prüfenden Aktivsubstanz werden so mit 3 ml eines speziellen Larvenzuchtmediums bei ca. 50°C vermischt, dass ein Homogenisat von wahlweise 250 ppm oder […] Wirkstoffgehalt entsteht. In jede Reagenzglas-Probe werden ca. 30 Lucilia-Larven (L₁) eingesetzt. Nach 4 Tagen wird die Mortalitätsrate bestimmt. Die Verbindungen aus den Herstellungsbeispielen zeigen bei 250 ppm eine Wirkung von 100 %, wobei die Verbindungen aus den Herstellungsbeispiele, wie z.B. E8, E6, E2, E14, E22, E28, E26, E30, E32, E34, E36 und E38, diese Wirkung auch noch bei der reduzierten Wirkstoffkonzentration von 100 ppm erzielten.

Meloidogyne incognita = assay: B-8 soil nematicidal action on tomato plants, root-knot index; type: in vivo; conditions: 0,002 % active substance relative to soil volume, after 4 weeks; result in words
Description: B-8. Bodennematizide Wirkung gegen Meloidogyne incognita
Eier von Meloidogyne incognita werden in Sand eingemischt. Dieses Gemisch wird dann in 200 ml fassende Tontöpfe eingebracht (5000 Eier pro Topf). Am gleichen Tag wird pro Topf eine 3 Wochen alte Tomatenpflanze gepflanzt und der formulierte Wirkstoffe mittels Druckapplikation in die Töpfe hineingegeben (0,002 % Aktivsubstanz bezogen auf das Bodenvolumen). Die eingetopften Pflanzen werden nun bei einer Temperatur von 26±1°C und einer relativen Luftfeuchtigkeit von 60 % in einem Gewächshaus aufgestellt. Nach Ablauf von 4 Wochen erfolgt eine Evaluierung durch Untersuchung der Pflanzen auf Wurzelgallbildung nach dem sogenannten Wurzelgall-Index ("Knot Index").

Spodoptera littoralis = assay: B-1 insecticidal stomach-poison action on sprayed cotton plants; type: in vivo; conditions: 12,5 ppm active ingredient, after 24 hours, L1 larvae on cotton plants
Description: B-1. Insektizide Frassgift-Wirkung bei Spodoptera littoralis
Eingetopfe Baumwollpflanzen im 5-Blatt-Stadium werden mit einer acetonisch/wässrigen Versuchslösung besprüht, die 3, 12,5 oder 50 ppm der zu prüfenden Verbindung enthält.
Nach dem Antrocknen des Belags werden die Pflanzen mit ca. 30 Larven (L₁-Stadium) von Spodoptera littoralis besetzt. Pro Versuchsverbindung und pro Test-Spezies verwendet man zwei Pflanzen. Der Versuch wird bei ca. 24°C und 60 % relativer Luftfeuchtigkeit durchgeführt Auswertungen und Zwischenauswertungen auf moribunde Tiere, Wachstum und Larven und Frasschäden erfolgen nach 24 Stunden, 48 Stunden und 72 Stunden.

[2] = system: Haemonchus concortus und Trichostrongylus colubriformis; assay: B-5 test on nematode-infected sheep, worm egg count in faeces; type: in vivo, Schafen; conditions: single dose 0,5 mg/kg by stomach tube or intraruminal injection
Description: B-5. Versuch an mit Nematoden (Haemonchus concortus und Trichostrongylus colubriformis) infizierten Schafen
Der Wirkstoff wird als Suspension formuliert mit einer Magensonde oder durch Injektion in den Pansen eines Schafes gegeben, das mit Haemonchus concortus und Trychostrongylus colubriformis künstlich infiziert worden ist. Pro Dosis werden 1 bis 3 Tiere verwendet. Jedes Schaf wird nur einmal mit einer einzigen Dosis behandelt, und zwar wahlweise mit 1 mg oder 0,5 mg/kg Körpergewicht. Die Evaluierung erfolgt durch Vergleich der Anzahl der vor und nach Behandlung im Kot der Schafe ausgeschiedenen Wurmeier.
Gleichzeitig und gleichartig infizierte aber unbehandelte Schafe dienen als Kontrolle. […] Verbindungen aus den Herstellungsbeispielen, wie. z.B. E4, E8, E14, E18, E30 bis E32, E 34 und E36, bewirkten dies auch noch bei 0,5 mg/kg.

Aedes aegypti = assay: B-7 larvicidal action in water; type: in vivo; conditions: 3,3 ppm, after one day
Description: B-7. Larvizidwirkung gegen Aedes aegypti
Auf die Oberfläche von 150 ml Wasser, das sich in einem Behälter befindet, wird soviel einer 0,1 %igen acetonischen Lösung des Wirkstoffes pipettiert, dass Konzentrationen von wahlweise 10 ppm, 3,3 ppm und 1,6 ppm erhalten werden. Nach Verdunsten des Acetons wird der Behälter mit ca. 30-40 3 Tage alten Aedes-Larven beschickt. Nach 1, 2 und 5 Tagen wird die Mortalität geprüft.

Dermanyssus gallinae = assay: B-4 miticidal action, wetting test in glass container; type: in vivo; conditions: 72 h, observed for three days, read-out: Wirkung (Mortalität)
Description: B-4. Milbizide Wirkung gegen Dermanyssus gallinae
2 bis 3 ml einer Testlösung (100, 10, 1 und 0,1 ppm Aktivsubstanz) werden in einem nach oben offenen Glasbehälter gegeben und ca. 200 Milben in unterschiedlichen Entwicklungstadien in diesen Behälter eingesetzt. Der Glasbehälter wird mit einem Wattebausch verschlossen und 10 Minuten gleichmässig, bis zur vollständigen Benetzung der Milben geschüttelt. Danach wird der Behälter umgekehrt hingestellt, bis die überschüssige Testlösung von der Watte aufgesogen ist. Der Behälter wird erneut gekehrt und die behandelten Zecken zur Evaluierung der Wirksamkeit der Testsubstanzen drei Tage unter Laborbedingungen beobachtet, wobei die Mortalität als Massstab für Wirksamkeit herangezogen wird.

Aphis craccivora = assay: B-6 contact action on infested pea seedlings; type: in vivo; conditions: for mortality at 25 ppm: Aphis craccivora, 72 h, read-out: Abtötung
Source text: B-6. Kontaktwirkung auf Aphis craccivora
Erbsenkeimlinge, die mit sämtlichen Entwicklungsstadien der Laus infiziert sind, werden mit einer aus einem Emulsionskonzentrat hergestellten Wirkstofflösung besprüht, die wahlweise 50 ppm, 25 ppm oder 12,5 ppm Wirkstoff enthält. Nach 3 Tagen wird auf mehr als 80 % tote bzw. abgefallene Blattläuse ausgewertet. Nur bei dieser Wirkungshöhe wird ein Präparat als wirksam eingestuft.

[3] = system: OP-sensible Tetranychus urticae; assay: B-2 action against plant-damaging acarids on bean plants; type: in vivo; conditions: 1,6 ppm active ingredient, evaluation after seven days
Source text: B-2. Wirkung gegen pflanzenschädigende Akariden OP-sensible Tetranychus urticae
Die Primärblätter von Bohnenpflanzen (Phaseolus vulgaris) werden 16 Stunden vor dem Versuch mit einem durch T. urticae infestierten, aus einer Massenzucht stammenden Blattstück belegt. Die so mit allen Milben-Stadien infestierten Pflanzen werden nach Entfernung des Blattstücks mit einer Versuchslösung bis zur Tropfnässe besprüht, die wahlweise 0,4 ppm oder 1,6 ppm der zu prüfenden Verbindung enthält. Die Temperatur in der Gewächshauskabine beträgt ca. 25°C.
Nach sieben Tagen wird unter dem Binokular auf Prozentsatz mobiler Stadien (Adulte und Nymphen) und auf vorhandene Eier ausgewertet.

SMILES | mortality at 100 ppm [1] [%] | Abtötung (Spodoptera littoralis) | Nematodenbefall (Reduktion der Wurmeier im Kot) [2] | also measured
CCC1OC2(CCC1C)CC1CC(CC=C(C)C(OC(=O)NC)C(C)C=CC=C3COC4C(O)C(C)=CC(C(=O)O1)C34O)O2 (stereo not drawn) [Beispiel E2, 13β-N-Methyl-carbamoyloxy-milbemycin A₄] | 100 |  |  | Wirksamkeit gegen Meloidogyne incognita (Reduktion der Wurzelgallbildung) (Meloidogyne incognita): besonders aktiv
CC[C@H]1O[C@]2(CC[C@@H]1C)C[C@@H]1C[C@@H](C/C=C(\C)[C@H](OC(=O)NC(C)(C)C)[C@@H](C)/C=C/C=C3\CO[C@@H]4[C@H](O)C(C)=C[C@@H](C(=O)O1)[C@]34O)O2 [Beispiel E4, 13β-N-tert.-Butyl-carbamoyloxy-milbemycin A₄] |  | vollständige Abtötung | komplette Reduktion der Wurmeier im Kot | Abtötung sämtlicher Larven (Aedes aegypti): vollständige Abtötung
CCC1OC2(CCC1C)CC1CC(CC=C(C)C(OC(=O)Nc3ccccc3)C(C)C=CC=C3COC4C(O)C(C)=CC(C(=O)O1)C34O)O2 (stereo not drawn) [Beispiel E6, 13β-N-Phenyl-carbamoyloxy-milbemycin A₄] | 100 | vollständige Abtötung |  | 
CCC1OC2(CCC1C)CC1CC(CC=C(C)C(OC(=O)N(C(C)C)C(C)C)C(C)C=CC=C3COC4C(O)C(C)=CC(C(=O)O1)C34O)O2 (stereo not drawn) [Beispiel E8, 13β-N,N-Diisopropyl-carbamoyloxy-milbemycin A₄] | 100 |  | komplette Reduktion der Wurmeier im Kot | mortality at 10 ppm (Dermanyssus gallinae): 100%; mortality at 25 ppm (Aphis craccivora; 25 ppm, after 3 days): 100%; Abtötung sämtlicher Larven (Aedes aegypti): vollständige Abtötung
CNC(=O)OC1C(C)=CCC2CC(CC3(CCC(C)C(C(C)C)O3)O2)OC(=O)C2C=C(C)C(O)C3OCC(=CC=CC1C)C23O (stereo not drawn) [Beispiel E10, 13β-N-Methylcarbamoyloxy-milbemycin D] |  | vollständige Abtötung |  | mortality at 10 ppm (Dermanyssus gallinae): 100%; mortality at 25 ppm (Aphis craccivora): 100%; Wirksamkeit gegen Meloidogyne incognita (Reduktion der Wurzelgallbildung) (Meloidogyne incognita): besonders aktiv
CCC1OC2(CCC1C)CC1CC(CC=C(C)C(OC(=O)NC3CCCCC3)C(C)C=CC=C3COC4C(O)C(C)=CC(C(=O)O1)C34O)O2 (stereo not drawn) [Beispiel E12, 13β-N-Cyclohexylcarbamoyloxy-milbemycin A₄] |  | vollständige Abtötung |  | Abtötung (Aphis craccivora; 25 ppm, after 3 days): 100%
CCC1OC2(CCC1C)CC1CC(CC=C(C)C(OC(=O)Nc3ccc(Br)cc3)C(C)C=CC=C3COC4C(O)C(C)=CC(C(=O)O1)C34O)O2 (stereo not drawn) [Beispiel E14, 13β-N-(4-Bromphenyl)carbamoyloxy-milbemycin A₄] | 100 | vollständige Abtötung | komplette Reduktion der Wurmeier im Kot | mortality at 25 ppm (Aphis craccivora; 25 ppm, after 3 days): 100%; Abtötung sämtlicher Larven (Aedes aegypti): vollständige Abtötung
CC[C@H]1O[C@]2(CC[C@@H]1C)C[C@@H]1C[C@@H](C/C=C(\C)[C@H](OC(=O)N(C)C)[C@@H](C)/C=C/C=C3\CO[C@@H]4[C@H](O)C(C)=C[C@@H](C(=O)O1)[C@]34O)O2 [Beispiel E16, 13β-N,N-Dimethyl-carbamoyloyx-milbemycin A₄] |  | vollständige Abtötung |  | Wirksamkeit gegen Meloidogyne incognita (Reduktion der Wurzelgallbildung) (Meloidogyne incognita): besonders aktiv
CCNC(=O)O[C@H]1/C(C)=C/C[C@@H]2C[C@@H](C[C@]3(CC[C@H](C)[C@@H](CC)O3)O2)OC(=O)[C@@H]2C=C(C)[C@@H](O)[C@H]3OC/C(=C\C=C\[C@@H]1C)[C@]32O [Beispiel E18, 13β-N-Ethyl-carbamoyloxy-milbemycin A₄] |  |  | komplette Reduktion der Wurmeier im Kot | Wirksamkeit gegen Meloidogyne incognita (Reduktion der Wurzelgallbildung) (Meloidogyne incognita): besonders aktiv
CC[C@H]1O[C@]2(CC[C@@H]1C)C[C@@H]1C[C@@H](C/C=C(\C)[C@H](OC(=O)Nc3ccc([N+](=O)[O-])cc3)[C@@H](C)/C=C/C=C3\CO[C@@H]4[C@H](O)C(C)=C[C@@H](C(=O)O1)[C@]34O)O2 [Beispiel E20, 13β-N-(4-Nitrophenyl)-carbamoyloxy-milbemycin A₄] |  |  |  | Abtötung [3]: vollständige Abtötung; Abtötung sämtlicher Larven (Aedes aegypti): vollständige Abtötung
CCC1OC2(CCC1C)CC1CC(CC=C(C)C(OC(=O)Nc3ccccc3C(F)(F)F)C(C)C=CC=C3COC4C(O)C(C)=CC(C(=O)O1)C34O)O2 (stereo not drawn) [Beispiel E22, 13β-N-(2-Trifluorphenyl)-carbamoyloxy-milbemycin A₄] | 100 | vollständige Abtötung |  | Abtötung [3]: vollständige Abtötung; mortality at 25 ppm (Aphis craccivora; 25 ppm, after 3 days): 100%; Abtötung sämtlicher Larven (Aedes aegypti): vollständige Abtötung
CCC1OC2(CCC1C)CC1CC(CC=C(C)C(OC(=O)NC(C)C)C(C)C=CC=C3COC4C(O)C(C)=CC(C(=O)O1)C34O)O2 (stereo not drawn) [Beispiel E26, 13β-Isopropyl-carbamoyloxy-milbemycin A₄] | 100 |  |  | mortality at 10 ppm (Dermanyssus gallinae): 100%
CCC1OC2(CCC1C)CC1CC(CC=C(C)C(OC(=O)NCc3ccccc3)C(C)C=CC=C3COC4C(O)C(C)=CC(C(=O)O1)C34O)O2 (stereo not drawn) [Beispiel E28, 13β-N-Benzyl-carbamoyloxy-milbemycin A₄] | 100 |  |  | 
CCC1OC2(CCC1C)CC1CC(CC=C(C)C(OC(=O)NC(C)c3ccccc3)C(C)C=CC=C3COC4C(O)C(C)=CC(C(=O)O1)C34O)O2 [Beispiel E30, 13β-N-((S)-1-Phenylethyl)-carbamoyloxy-milbemycin A₄] | 100 |  |  | 
CCC1OC2(CCC1C)CC1CC(CC=C(C)C(OC(=O)Nc3ccccc3Br)C(C)C=CC=C3COC4C(O)C(C)=CC(C(=O)O1)C34O)O2 (stereo not drawn) [Beispiel E34, 13β-N-(2-Bromphenyl)-carbamoyloxy-milbemycin A₄] | 100 |  | komplette Reduktion der Wurmeier im Kot | 
CCc1ccccc1NC(=O)OC1C(C)=CCC2CC(CC3(CCC(C)C(CC)O3)O2)OC(=O)C2C=C(C)C(O)C3OCC(=CC=CC1C)C23O (stereo not drawn) [Beispiel E36, 13β-N-(2-Ethylphenyl)-carbamoyloxy-milbemycin A₄] | 100 |  | komplette Reduktion der Wurmeier im Kot | 
CCC1OC2(CCC1C)CC1CC(CC=C(C)C(OC(=O)Nc3ccccc3[N+](=O)[O-])C(C)C=CC=C3COC4C(O)C(C)=CC(C(=O)O1)C34O)O2 (stereo not shown) [Beispiel E38] | 100 |  |  | 
